16 molecules from US20160272617A1, “SUBSTITUTED PHENYLALANINE DERIVATIVES” (BAYER PHARMA AKTIENGESELLSCHAFT, priority 2013, published 2016) can be followed below.

One assay deals with T1, human factor XIa (Homo sapiens, UniProt P03951).
T1 construct: purchased Kordia
The assay is described as follows: Measurement of FXIa inhibition (fluorogenic peptide substrate Boc-Glu(OBzl)-Ala-Arg-AMC). In kind it is biochemical. The conditions noted are these: factor XIa from Kordia, 15 min preincubation, 30 min at 22° C., fluorescence. As for the experimental part:
The factor XIa inhibition of the inventive substances is determined using a biochemical test system which utilizes the reaction of a peptidic factor XIa substrate to determine the enzymatic activity of human factor XIa. Here, factor XIa cleaves from the peptic factor XIa substrate the C-terminal aminomethylcoumarin (AMC), the fluorescence of which is measured. The determinations are carried out in microtitre plates.
Test substances are dissolved in dimethyl sulphoxide and serially diluted in dimethyl sulphoxide (3000 μM to 0.0078 μM; resulting final concentrations in the test: 50 μM to 0.00013 μM). In each case 1 μl of the diluted substance solutions is placed into the wells of white microtitre plates from Greiner (384 wells). Subsequently, the following are added successively: 20 μl of assay buffer (50 mmol/l Tris buffer pH 7.4; 100 mmol/l sodium chloride; 5 mmol/l calcium chloride; 0.1% bovine serum albumin) and 20 μl of factor XIa from Kordia (0.45 nM in assay buffer). After 15 min of incubation, the enzyme reaction is started by addition of 20 μl of the factor XIa substrate Boc-Glu(OBzl)-Ala-Arg-AMC dissolved in assay buffer (10 μM in assay buffer) from Bachem, the mixture is incubated at room temperature (22° C.) for 30 min and fluorescence is then measured (excitation: 360 nm, emission: 460 nm). The measured emissions of the test mixtures with test substance are compared to those of control mixtures without test substance (only dimethyl sulphoxide instead of test substance in dimethyl sulphoxide), and the IC50 values are calculated from the concentration/activity relationships.

Another assay relates to human and animal plasma. The assay is described as follows: Determination of anticoagulatory activity: activated partial thromboplastin time (aPTT) in plasma. The settings on record: concentration of test substance which brings about a 1.5-fold extension of the aPTT; plasma species not given. The method, then: The anticoagulatory activity of the test substances is determined in vitro in human and animal plasma (for example mouse, rat, rabbit, pig and dog plasma). To this end, blood is drawn off in a mixing ratio of sodium citrate/blood of 1:9 using a 0.11 molar sodium citrate solution as receiver. Immediately after the blood has been drawn off, it is mixed thoroughly and centrifuged at about 4000 g for 15 minutes. The supernatant is pipetted off.
The activated partial thromboolastin time (aPTT) is determined in the presence of varying concentrations of test substance or the corresponding solvent using a commercial test kit (C. K. Prest from Diagnostica Stago). The test compounds are incubated with the plasma and the PTT reagent (cephalin, kaolin) at 37° C. for 3 minutes. Coagulation is then started by addition of a 25 mM aqueous calcium chloride solution, and the time when coagulation occurs is determined. The concentration of test substance which brings about a 1.5-fold extension of the aPTT is determined.

pIC50: −log10 of the molar value. Counter-ions that a name gives are not always drawn.

T1 sequence (P03951 388-625 limits assumed): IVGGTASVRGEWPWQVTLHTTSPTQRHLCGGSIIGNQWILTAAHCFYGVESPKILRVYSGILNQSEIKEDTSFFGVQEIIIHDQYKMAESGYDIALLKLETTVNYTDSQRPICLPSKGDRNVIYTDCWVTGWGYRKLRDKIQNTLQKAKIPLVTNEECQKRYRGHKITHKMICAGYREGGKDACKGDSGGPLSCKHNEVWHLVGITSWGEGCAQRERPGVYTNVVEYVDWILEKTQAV
T1 sequence (P03951 19-387 partner limits assumed): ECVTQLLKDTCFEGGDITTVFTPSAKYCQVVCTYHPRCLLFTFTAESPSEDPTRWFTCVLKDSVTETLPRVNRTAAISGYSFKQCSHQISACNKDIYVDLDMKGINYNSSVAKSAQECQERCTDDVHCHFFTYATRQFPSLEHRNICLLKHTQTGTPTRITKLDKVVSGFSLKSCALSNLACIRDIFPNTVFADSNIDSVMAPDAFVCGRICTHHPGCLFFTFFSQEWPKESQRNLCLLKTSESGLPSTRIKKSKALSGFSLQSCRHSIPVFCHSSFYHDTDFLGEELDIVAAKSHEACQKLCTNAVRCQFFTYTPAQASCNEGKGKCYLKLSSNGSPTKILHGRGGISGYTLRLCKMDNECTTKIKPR

For the molecule `Cc1cc(C(=O)NC2CCNCC2)ccc1-c1ccc(C[C@H](NC(=O)[C@H]2CC[C@H](CN)CC2)C(=O)Nc2ccc(-c3nnc(Cl)[nH]3)cc2)cc1` [Example 49, 4′-[(2S)-2-({[trans-4-(Aminomethyl)cyclohexyl]carbonyl}amino)-3-{[4-(3-chloro-4H-1,2,4-triazol-5-yl)phenyl]amino}-3-oxopropyl]-2-methyl-N-(piperidin-4-yl)biphenyl-4-carboxamide hydrochloride], at human factor XIa, the pIC50 was 8.68. Further, the “aPTT” value in the assay with human and animal plasma was found to be 0.08 µmol/L. Regarding `Cc1cc(C(N)=O)ccc1-c1ccc(C[C@H](NC(=O)[C@H]2CC[C@H](CN)CC2)C(=O)Nc2ccc(-c3nn[nH]n3)cc2)cc1` [Example 14, 4′-[(2S)-2-({[trans-4-(Aminomethyl)cyclohexyl]carbonyl}amino)-3-oxo-3-{[4-(2H-tetrazol-5-yl)phenyl]amino}propyl]-2-methylbiphenyl-4-carboxamide hydrochloride], the pIC50 at human factor XIa was 8.85. Moreover, in the assay with human and animal plasma, the “aPTT” value was determined as 0.49 µmol/L.

`Cc1cc(C(=O)N[C@H]2CC[C@H](N)CC2)ccc1-c1ccc(C[C@H](NC(=O)[C@H]2CC[C@H](CN)CC2)C(=O)Nc2ccc3[nH]c(C(F)(F)C(F)(F)F)nc3c2)cc1` [Example 79, N-(trans-4-Aminocyclohexyl)-4′-[(2S)-2-({[trans-4-(aminomethyl)cyclohexyl]carbonyl}amino)-3-oxo-3-{[2-(pentafluoroethyl)-1H-benzimidazol-5-yl]amino}propyl]-2-methylbiphenyl-4-carboxamide hydrochloride] showed a pIC50 against human factor XIa of 7.92. Also, the “aPTT” value in the assay with human and animal plasma stood at 0.21 µmol/L. The like results for `CNC(=O)C(F)(F)C(F)(F)c1n[nH]c(-c2ccc(NC(=O)[C@H](Cc3ccc(-c4ccc(C(=O)NC5CCNCC5)cc4C)cc3)NC(=O)[C@H]3CC[C@H](CN)CC3)cc2)n1` [Example 128, 4′-{(2S)-2-({[trans-4-(Aminomethyl)cyclohexyl]carbonyl}amino)-3-oxo-3-[(4-{3-[1,1,2,2-tetrafluoro-3-(methylamino)-3-oxopropyl]-1H-1,2,4-triazol-5-yl}phenyl)amino]propyl}-2-methyl-N-(piperidin-4-yl)biphenyl-4-carboxamide hydrochloride] were, in that order, 8.77 and 0.14 µmol/L.

`COCCOCCOCCOCCNC(=O)c1ccc(-c2ccc(C[C@H](NC(=O)[C@H]3CC[C@H](CN)CC3)C(=O)Nc3ccc4c(=O)[nH][nH]c4c3)cc2)c(C)c1` [Example 28, 4′-{(2S)-2-({[trans-4-(Aminomethyl)cyclohexyl]carbonyl}amino)-3-oxo-3-[(3-oxo-2,3-dihydro-1H-indazol-6-yl)amino]propyl}-2-methyl-N-(2,5,8,11-tetraoxatridecan-13-yl)biphenyl-4-carboxamide hydrochloride] had a pIC50 against human factor XIa of 7.85. The “aPTT” value with human and animal plasma was found to be 0.33 µmol/L. Consider `Cc1cc(C(=O)N[C@@H]2C[C@@H](CO)NC2=O)ccc1-c1ccc(C[C@H](NC(=O)[C@H]2CC[C@H](CN)CC2)C(=O)Nc2ccc3[nH]c(=O)[nH]c3c2)cc1` [Example 97, 4′-{(2S)-2-({[trans-4-(Aminomethyl)cyclohexyl]carbonyl}amino)-3-oxo-3-[(2-oxo-2,3-dihydro-1H-benzimidazol-5-yl)amino]propyl}-N-[(3R,5S)-5-(hydroxymethyl)-2-oxopyrrolidin-3-yl]-2-methylbiphenyl-4-carboxamide hydrochloride], for which the pIC50 at human factor XIa is 8.49. Besides, the “aPTT” value in the assay on human and animal plasma turned out to be 0.06 µmol/L. As to `Cc1cc(C(=O)N[C@H]2CC[C@H](O)CC2)ccc1-c1ccc(CC(NC(=O)[C@H]2CC[C@H](CN)CC2)C(=O)Nc2ccc(-c3nnc(C(F)(F)C(F)(F)C(=O)O)[nH]3)cc2)cc1` (mixture of isomers) [Example 131, 3-[5-(4-{[2-({[trans-4-(Aminomethyl)cyclohexyl]carbonyl}amino)-3-{4′-[(trans-4-hydroxycyclohexyl)carbamoyl]-2′-methylbiphenyl-4-yl}propanoyl]amino}phenyl)-4H-1,2,4-triazol-3-yl]-2,2,3,3-tetrafluoropropanoic acid (enantiomer mixture)], the “aPTT” value in the assay with human and animal plasma is 0.2 µmol/L. With `Cc1cc(C(=O)NC2CCC(O)C2)ccc1-c1ccc(CC(NC(=O)C2CCC(CN)CC2)C(=O)Nc2ccc(-c3nnn[nH]3)c(F)c2)cc1` [Example 92, 4′-[(2S)-2-({[trans-4-(Aminomethyl)cyclohexyl]carbonyl}amino)-3-{[3-fluoro-4-(2H-tetrazol-5-yl)phenyl]amino}-3-oxopropyl]-N-(3-hydroxycyclopentyl)-2-methylbiphenyl-4-carboxamide hydrochloride], on human factor XIa, the pIC50 is 8.74. The molecule `Cc1cc(C(=O)N[C@H]2CC[C@H](O)CC2)ccc1-c1ccc(C[C@@H](NC(=O)[C@H]2CC[C@H](CN)CC2)C(=O)Nc2ccc(-c3nnc(C(F)(F)C(F)(F)C(=O)O)[nH]3)cc2)cc1` (single isomer, unassigned; enantiomer 2) [Example 105] had a pIC50 against human factor XIa of 7.19. On the same count and under the same terms, then `Cc1cc(C(=O)NC2CCC(N(C)C)CC2)ccc1-c1ccc(C[C@H](NC(=O)[C@H]2CC[C@H](CN)CC2)C(=O)Nc2ccc3c(=O)[nH][nH]c3c2)cc1` (stereo partly drawn) [Example 68, 4′-{(2S)-2-({[trans-4-(Aminomethyl)cyclohexyl]carbonyl}amino)-3-oxo-3-[(3-oxo-2,3-dihydro-1H-indazol-6-yl)amino]propyl}-N-[4-(dimethylamino)cyclohexyl]-2-methylbiphenyl-4-carboxamide hydrochloride], with 8.08; and `Cc1cc(C(=O)NC2CCNCC2)ccc1-c1ccc(C[C@H](NC(=O)[C@H]2CC[C@H](CN)CC2)C(=O)Nc2ccc(-c3nnc(CC(C)C)[nH]3)cc2)cc1` [Example 58, 4′-[(2S)-2-({[trans-4-(Aminomethyl)cyclohexyl]carbonyl}amino)-3-{[4-(3-isobutyl-4H-1,2,4-triazol-5-yl)phenyl]amino}-3-oxopropyl]-2-methyl-N-(piperidin-4-yl)biphenyl-4-carboxamide hydrochloride], with 7.39; and `Cc1cc(C(=O)NC2CCCNC2=O)ccc1-c1ccc(C[C@H](NC(=O)[C@H]2CC[C@H](CN)CC2)C(=O)Nc2ccc(-c3nc(C(F)F)n[nH]3)cc2)cc1` (stereo partly drawn) [Example 74, 4′-[(2S)-2-({[trans-4-(Aminomethyl)cyclohexyl]carbonyl}amino)-3-({4-[3-(difluoromethyl)-1H-1,2,4-triazol-5-yl]phenyl}amino)-3-oxopropyl]-2-methyl-N-(2-oxopiperidin-3-yl)biphenyl-4-carboxamide hydrochloride], with 8.89. As to `Cc1cc(C(=O)NC2CCN(C)CC2)ccc1-c1ccc(C[C@H](NC(=O)[C@H]2CC[C@H](CN)CC2)C(=O)Nc2ccc(-c3nc(C(F)(F)C(F)(F)C(=O)O)n[nH]3)cc2)cc1` [Example 130, 3-[5-(4-{[(2S)-2-({[trans-4-(Aminomethyl)cyclohexyl]carbonyl}amino)-3-{2′-methyl-4′-[(1-methylpiperidin-4-yl)carbamoyl]biphenyl-4-yl}propanoyl]amino}phenyl)-1H-1,2,4-triazol-3-yl]-2,2,3,3-tetrafluoropropanoic acid], the “aPTT” value in the assay on human and animal plasma is 0.12 µmol/L. Regarding `Cc1cc(C(=O)N[C@H]2CCCN(C)C2)ccc1-c1ccc(C[C@H](NC(=O)[C@H]2CC[C@H](CN)CC2)C(=O)Nc2ccc(-c3nn[nH]n3)cc2)cc1` [Example 73, 4′-[(2S)-2-({[trans-4-(Aminomethyl)cyclohexyl]carbonyl}amino)-3-oxo-3-{[4-(2H-tetrazol-5-yl)phenyl]amino}propyl]-2-methyl-N-[(3S)-1-methylpiperidin-3-yl]biphenyl-4-carboxamide hydrochloride], the pIC50 at human factor XIa is 8.47. Same read-out and setting: then `Cc1cc(C(=O)N2CCS(=O)(=O)CC2)ccc1-c1ccc(C[C@H](NC(=O)[C@H]2CC[C@H](CN)CC2)C(=O)Nc2ccc(-c3nn[nH]n3)cc2)cc1` [Example 69, trans-4-(Aminomethyl)-N-[(2S)-3-{4′-[(1,1-dioxidothiomorpholin-4-yl)carbonyl]-2′-methyl-biphenyl-4-yl}-1-oxo-1-{[4-(2H-tetrazol-5-yl)phenyl]amino}propan-2-yl]cyclohexanecarboxamide hydrochloride], with 8.62; and `COc1cc(C(=O)NC2CCC(N(C)C)CC2)ccc1-c1ccc(C[C@H](NC(=O)[C@H]2CC[C@H](CN)CC2)C(=O)Nc2ccc(-c3nn[nH]n3)cc2)cc1` (stereo partly drawn) [Example 67, 4′-[(2S)-2-({[trans-4-(Aminomethyl)cyclohexyl]carbonyl}amino)-3-oxo-3-{[4-(2H-tetrazol-5-yl)phenyl]amino}propyl]-N-[4-(dimethylamino)cyclohexyl]-2-methoxybiphenyl-4-carboxamide hydrochloride], with 8.34.

As a reminder, the pIC50 is the negative decadic logarithm of the IC50, by convention in mol/L.
